In brackets after ≈: the same amount, converted by molar mass.

EC50 data for 18 molecules are collected here from ChEMBL document CHEMBL1151290, “Chemical constituents of Brazilian propolis and their cytotoxic activities” (1998).

One experiment relates to HT-1080. The experiment is described as follows: Cytotoxicity against human HT1080 cells after 24 hrs by MTT assay. In kind it is functional. Conditions: HT-1080, 24 h, read-out: ED50 (the source's name).
Experiment [1] can be described thus: Cytotoxicity against mouse 26-L5 cells after 24 hrs by MTT assay. Conditions: read-out: ED50 (the source's name). In kind it is functional.

Consider `C=C(C)[C@H]1Cc2cc(C(C)=O)ccc2O1` [TREMETONE], for which the results for the EC50 (in the experiment on HT-1080; in experiment [1]) were 57.4 µg/mL (≈ 284 µM) and 58.1 µg/mL (≈ 287 µM), respectively.

As to `COc1ccc(-c2oc3cc(O)c(OC)c(O)c3c(=O)c2O)cc1` [BETULETOL], the EC50 in the experiment with HT-1080 is 5.83 µg/mL (≈ 17.7 µM); in experiment [1] it was 4.95 µg/mL (≈ 15 µM).

On to `C=C1CC[C@@H]2[C@](C)(CCC[C@]2(C)C(=O)O)[C@H]1CC/C(C)=C/COC(C)=O`, for which the EC50 in the experiment with HT-1080 turned out to be 70.1 µg/mL (≈ 193 µM); in experiment [1], 73.3 µg/mL (≈ 202 µM).

With `CC(C)=CCc1cc(/C=C/C(=O)O)cc2c1OC(C)(C)C=C2` [CULIFOLIN], the EC50 came to 46.9 µg/mL (≈ 157 µM) in the experiment with HT-1080 and 50.2 µg/mL (≈ 168 µM) in experiment [1].

Regarding `CC(C)=CCc1cc(/C=C/C(=O)O)ccc1OC(=O)CCc1ccccc1` [BACCHARIN], the figures for the EC50 (in the experiment on HT-1080; in experiment [1]) were 25.9 µg/mL (≈ 71.2 µM) and 77.9 µg/mL (≈ 214 µM), respectively.

In the case of `COc1ccc(-c2oc3cc(O)cc(O)c3c(=O)c2OC)cc1` [ERMANIN], the EC50 with HT-1080 was 2.3 µg/mL (≈ 7.32 µM); in experiment [1], 7.64 µg/mL (≈ 24.3 µM).

`C=C1CC[C@@H]2[C@](C)(CCC[C@]2(C)C(=O)O)[C@H]1CC/C(C)=C/CO` [ISOCUPRESSIC ACID]: the results for the EC50 (in the experiment with HT-1080; in experiment [1]) were 72.9 µg/mL (≈ 228 µM) and 63.5 µg/mL (≈ 198 µM), respectively.

Consider `C=C[C@](C)(O)CC[C@H]1C(=C)CC[C@@H]2[C@]1(C)CCC[C@]2(C)C(=O)O` [CUPRESSICACID], for which the EC50 in the experiment with HT-1080 is 94.9 µg/mL (≈ 296 µM); in experiment [1], more than 100 µg/mL.

Take `COc1cc(/C=C/C=O)ccc1O` [CONIFERYL ALDEHYDE]: the values for the EC50 (in the experiment with HT-1080; in experiment [1]) were 4.05 µg/mL (≈ 22.7 µM) and 10.4 µg/mL (≈ 58.6 µM), respectively.

`C=C(CO)[C@H]1Cc2cc(C(C)=O)c(O)cc2O1`: the EC50 turned out to be 45.5 µg/mL (≈ 194 µM) with HT-1080 and 57.1 µg/mL (≈ 244 µM) in experiment [1].

Turning to `COc1ccc(-c2oc3cc(O)cc(O)c3c(=O)c2O)cc1` [KAEMPFERIDE], the EC50 in the experiment on HT-1080 was found to be 2.91 µg/mL (≈ 9.69 µM); in experiment [1] it was 5.95 µg/mL (≈ 19.8 µM).

Turning to `C=C1CC[C@@H]2[C@](C)(CCC[C@]2(C)C(=O)O)[C@H]1CC/C(C)=C/C(=O)OC`, the EC50 was 72.8 µg/mL (≈ 209 µM) with HT-1080 and more than 100 µg/mL in experiment [1].

In the case of `COc1ccc([C@H]2Oc3cc(O)cc(O)c3C(=O)[C@@H]2O)cc1`, the results for the EC50 (in the experiment with HT-1080; in experiment [1]) were 27 µg/mL (≈ 89.2 µM) and 71 µg/mL (≈ 235 µM), respectively.

`CC(C)=CCc1cc(/C=C/C(=O)O)cc2c1OC(C)(C)C(O)C2` (stereo unspecified): the EC50 came out at 71.5 µg/mL (≈ 226 µM) in the experiment on HT-1080 and 77.1 µg/mL (≈ 244 µM) in experiment [1].

As for `COc1cccc2c1C(=O)c1c(O)c3c(c(O)c1C2=O)C[C@@](O)(C(=O)CO)C[C@@H]3O[C@H]1C[C@H](N)[C@H](O)[C@H](C)O1.Cl` [DOXORUBICIN HYDROCHLORIDE], the EC50 came to 0.034 µg/mL in the experiment with HT-1080 and 0.015 µg/mL in experiment [1].

With `CC(C)=CCc1cc(/C=C/C(=O)O)cc(CC=C(C)C)c1O` [ARTEPILLIN], the values for the EC50 (in the experiment with HT-1080; in experiment [1]) were 45.5 µg/mL (≈ 151 µM) and 59.3 µg/mL (≈ 197 µM), respectively.

As to `C=C1CC[C@@H]2[C@](C)(CCC[C@]2(C)C(=O)O)[C@H]1CC/C(C)=C/C(=O)O` [AGATHIC ACID], the EC50 worked out at 75.4 µg/mL (≈ 226 µM) in the experiment with HT-1080 and 95.9 µg/mL (≈ 287 µM) in experiment [1].

Consider `COc1cc([C@H]2Oc3c(OC)cc(/C=C/COC(C)=O)cc3[C@@H]2COC(C)=O)ccc1O` [DIMERICCONIFERYLACETATE], for which the EC50 came out at 38.9 µg/mL (≈ 88 µM) with HT-1080 and 39.9 µg/mL (≈ 90.1 µM) in experiment [1].
